The results in this text go back to the supplement of paper PMC11208160.
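Note: IS621 bridge recombinase in Escherichia coli cells against a fixed T5 target plasmid.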

This series in a line: recombinant UMI read abundance after kanamycin selection (control-corrected) (log10(CPM+1)); higher = more efficient recombination; extreme values may be limits of the assay; sequences stand for … in AGTGCAGAGAAAATCGGCCAGTTTTCTCTGCCTGCAGTCCGCATGCCGTGGGACCCCTTGGGTTCTAACCTGTTGCCTAGATTTATGCAGCGGACTGCCTTTCTCCCAAAGTGATAAACCGG…AGGTTGGTTTCACT; site = the 11-nt donor. The procedure:
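Pooled E. coli donor-specificity screen for the IS621 bridge recombinase. Each library member carries a reprogrammed 11-nt donor and a full-length LE bridge RNA expressed in cis from the natural promoter, with a paired donor-binding loop (8-nt LDG + 4-nt RDG) and a target-binding loop fixed to T5. It is co-electroporated with a T5 target plasmid; recombinase is induced with 0.07 mM IPTG and recombinants are selected on kanamycin. UMIs are counted as CPM, averaged over two biological replicates and corrected by the unselected control. Molecule = full bridge RNA written as DNA, built from the T5 scaffold: LDG = donor specificity nt 1-8, RDG = reverse complement of nt 8-11.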
For the sequence “ACGAAGCCATGGACCGGTTTTCCCGGTAATCCGTATTTGGG (site CCGAAGCCTCC)”, the “recombinant UMI read abundance (log10)” value was 0.00571. As for “ACGAAGCCATGGACCGGTTTTCCCGGTAATCCGTATTTGGG (site GCGAAGCCTCC)”, the figure is 0.0145. The value for “ACGAAGCCATGGACCGGTTTTCCCGGTAATCCGTATTTGGG (site TCGAAGCCTCC)” was 0.113; that for “ACGACGCCATGGACCGGTTTTCCCGGTAATCCGTATTTGCT (site ACGACGCCTAG)” was 0. On to “ACGAGAACATGGACCGGTTTTCCCGGTAATCCGTATTTGCC (site ACGAGAACTGG)”, for which the “recombinant UMI read abundance (log10)” value came to 2.44. As for “ACGAGTTCATGGACCGGTTTTCCCGGTAATCCGTATTTGGA (site ACGAGTTCTTC)”, the figure is 2.41; as for “ACGATAGCATGGACCGGTTTTCCCGGTAATCCGTATTTGTC (site ACGATAGCTGA)”, 2.92; as for “ACGATGACATGGACCGGTTTTCCCGGTAATCCGTATTTGCA (site ACGATGACTTG)”, 3.16.

Turning to “ACGATGACATGGACCGGTTTTCCCGGTAATCCGTATTTGCA (site AGGAAGACTTG)”, the “recombinant UMI read abundance (log10)” value turned out to be 0.907. Turning to “ACGCACGCATGGACCGGTTTTCCCGGTAATCCGTATTTGGG (site AAGCACGCTCC)”, the “recombinant UMI read abundance (log10)” value is 0.0265.

Regarding “ACGCACGCATGGACCGGTTTTCCCGGTAATCCGTATTTGGG (site ACGCACGCTCC)”, the “recombinant UMI read abundance (log10)” value was 0.00911. Regarding “ACGCACGCATGGACCGGTTTTCCCGGTAATCCGTATTTGGG (site AGGCACGCTCC)”, the “recombinant UMI read abundance (log10)” value was determined as 0.00698. The value for “ACGCACGCATGGACCGGTTTTCCCGGTAATCCGTATTTGGG (site ATGCACGCTCC)” was 0.12; that for “ACGCCACCATGGACCGGTTTTCCCGGTAATCCGTATTTGGG (site ACGCCACCTCC)” was 0.011; that for “ACGCCTCCATGGACCGGTTTTCCCGGTAATCCGTATTTGTG (site ACGCCTCCTCA)” was 0.0426. On to “ACGCGCACATGGACCGGTTTTCCCGGTAATCCGTATTTGCG (site ACGCGCACTCG)”, for which the “recombinant UMI read abundance (log10)” value was determined as 1.97. As for “ACGGCCCCATGGACCGGTTTTCCCGGTAATCCGTATTTGTG (site ACGGCCCCTCA)”, the “recombinant UMI read abundance (log10)” value was found to be 0.0276.

With “ACGGCCGCATGGACCGGTTTTCCCGGTAATCCGTATTTGAA (site ACGGCCGCTTT)”, the “recombinant UMI read abundance (log10)” value stood at 1.43. “ACGGCGTCATGGACCGGTTTTCCCGGTAATCCGTATTTGGT (site ACGGCGTCTAC)”: the “recombinant UMI read abundance (log10)” value came out at 2.01. With “ACGGGACCATGGACCGGTTTTCCCGGTAATCCGTATTTGTC (site ACGGGACCTGA)”, the “recombinant UMI read abundance (log10)” value was found to be 0. Turning to “ACGGGCGCATGGACCGGTTTTCCCGGTAATCCGTATTTGTT (site ACGGGCGCTAA)”, the “recombinant UMI read abundance (log10)” value was 1.39. Turning to “ACGGTAGCATGGACCGGTTTTCCCGGTAATCCGTATTTGCA (site ACAGTATCTTG)”, the “recombinant UMI read abundance (log10)” value is 2.05. Turning to “ACGGTAGCATGGACCGGTTTTCCCGGTAATCCGTATTTGCA (site ACGGTAGCTTG)”, the “recombinant UMI read abundance (log10)” value came to 2.74. “ACGTAGCCATGGACCGGTTTTCCCGGTAATCCGTATTTGCC (site ACGTAGCCTGG)”: the “recombinant UMI read abundance (log10)” value came to 0.17. Turning to “ACGTCACCATGGACCGGTTTTCCCGGTAATCCGTATTTGTA (site ACGTCACCTTA)”, the “recombinant UMI read abundance (log10)” value was 0.0617.

Turning to “ACGTGCACATGGACCGGTTTTCCCGGTAATCCGTATTTGGG (site ACGTGCACTCC)”, the “recombinant UMI read abundance (log10)” value amounted to 0.0159.

For the sequence “ACGTGGCCATGGACCGGTTTTCCCGGTAATCCGTATTTGAG (site ACGTGGCCTCT)”, the “recombinant UMI read abundance (log10)” value was 0.0124.

For the sequence “ACGTGTACATGGACCGGTTTTCCCGGTAATCCGTATTTGTT (site ACGTGTACTAA)”, the “recombinant UMI read abundance (log10)” value was 1.47. On to “ACGTGTTCATGGACCGGTTTTCCCGGTAATCCGTATTTGAC (site ACGTGTTCTGT)”, for which the “recombinant UMI read abundance (log10)” value came to 2.1. Regarding “ACGTTCCCATGGACCGGTTTTCCCGGTAATCCGTATTTGTG (site AAGTTCCCTCA)”, the “recombinant UMI read abundance (log10)” value amounted to 0.0189. With “ACGTTCCCATGGACCGGTTTTCCCGGTAATCCGTATTTGTG (site ACGTTCCCTCA)”, the “recombinant UMI read abundance (log10)” value was 0.0247. With “ACGTTCCCATGGACCGGTTTTCCCGGTAATCCGTATTTGTG (site AGGTTCCCTCA)”, the “recombinant UMI read abundance (log10)” value turned out to be 0.0827. As for “ACGTTCCCATGGACCGGTTTTCCCGGTAATCCGTATTTGTG (site ATGTTCCCTCA)”, the figure is 0.0196; as for “ACGTTTACATGGACCGGTTTTCCCGGTAATCCGTATTTGCT (site ACGTTTACTAG)”, 2.06; as for “ACGTTTACATGGACCGGTTTTCCCGGTAATCCGTATTTGCT (site CCGTTTACTAG)”, 1.53. Take “ACGTTTACATGGACCGGTTTTCCCGGTAATCCGTATTTGCT (site GCGTTTACTAG)”: the “recombinant UMI read abundance (log10)” value turned out to be 0.666.

On to “ACGTTTACATGGACCGGTTTTCCCGGTAATCCGTATTTGCT (site TCGTTTACTAG)”, for which the “recombinant UMI read abundance (log10)” value was 1.37. The value for “ACGTTTGCATGGACCGGTTTTCCCGGTAATCCGTATTTGTC (site ACGTTTGCTGA)” was 1.45.

“ACTAAGTCATGGACCGGTTTTCCCGGTAATCCGTATTTGAG (site ACTAAGTCTCT)”: the “recombinant UMI read abundance (log10)” value was 2.46. On to “ACTACACCATGGACCGGTTTTCCCGGTAATCCGTATTTGCC (site ACTACACCTGG)”, for which the “recombinant UMI read abundance (log10)” value was 0. Regarding “ACTACAGCATGGACCGGTTTTCCCGGTAATCCGTATTTGAC (site ACTACAGCTGT)”, the “recombinant UMI read abundance (log10)” value was determined as 2.36. The value for “ACTACCCCATGGACCGGTTTTCCCGGTAATCCGTATTTGAC (site ACTACCCCTGT)” was 0.736; that for “ACTAGAACATGGACCGGTTTTCCCGGTAATCCGTATTTGGG (site ACTAGAACTCA)” was 0.0109; that for “ACTAGAACATGGACCGGTTTTCCCGGTAATCCGTATTTGGG (site ACTAGAACTCC)” was 0.113. As for “ACTAGAACATGGACCGGTTTTCCCGGTAATCCGTATTTGGG (site ACTAGAACTCG)”, the “recombinant UMI read abundance (log10)” value worked out at 0.00448.

In the case of “ACTAGAACATGGACCGGTTTTCCCGGTAATCCGTATTTGGG (site ACTAGAACTCT)”, the “recombinant UMI read abundance (log10)” value stood at 0.0325. On to “ACTAGAACATGGACCGGTTTTCCCGGTAATCCGTATTTGTG (site ACTAGAACTCA)”, for which the “recombinant UMI read abundance (log10)” value came out at 1.35. Consider “ACTAGAACATGGACCGGTTTTCCCGGTAATCCGTATTTGTG (site ACTAGAACTCC)”, for which the “recombinant UMI read abundance (log10)” value stood at 0.0298. In the case of “ACTAGAACATGGACCGGTTTTCCCGGTAATCCGTATTTGTG (site ACTAGAACTCG)”, the “recombinant UMI read abundance (log10)” value was 0.285. As for “ACTAGAACATGGACCGGTTTTCCCGGTAATCCGTATTTGTG (site ACTAGAACTCT)”, the figure is 0.

Turning to “ACTAGTGCATGGACCGGTTTTCCCGGTAATCCGTATTTGGA (site ACTAGTGCTAC)”, the “recombinant UMI read abundance (log10)” value stood at 0. As for “ACTAGTGCATGGACCGGTTTTCCCGGTAATCCGTATTTGGA (site ACTAGTGCTCC)”, the figure is 0.0115; as for “ACTAGTGCATGGACCGGTTTTCCCGGTAATCCGTATTTGGA (site ACTAGTGCTGC)”, 0; as for “ACTAGTGCATGGACCGGTTTTCCCGGTAATCCGTATTTGGA (site ACTAGTGCTTC)”, 1.36.

In the case of “ACTATAGCATGGACCGGTTTTCCCGGTAATCCGTATTTGCA (site ACTATAGCTTG)”, the “recombinant UMI read abundance (log10)” value came out at 1.94. As to “ACTCAAGCATGGACCGGTTTTCCCGGTAATCCGTATTTGTT (site ACTCAAGCTAA)”, the “recombinant UMI read abundance (log10)” value came to 1.72. As for “ACTCCAGCATGGACCGGTTTTCCCGGTAATCCGTATTTGTG (site ACTCCAGCTCA)”, the figure is 0.753.

As for “ACTCGAGCATGGACCGGTTTTCCCGGTAATCCGTATTTGCT (site ACTCGAGCTAG)”, the “recombinant UMI read abundance (log10)” value was 1.64. With “ACTCTAGCATGGACCGGTTTTCCCGGTAATCCGTATTTGCC (site ACTCTAGCTGG)”, the “recombinant UMI read abundance (log10)” value stood at 0.

“ACTGAATCATGGACCGGTTTTCCCGGTAATCCGTATTTGCC (site ACTGAATCTGG)”: the “recombinant UMI read abundance (log10)” value is 2.1.

“ACTGCATCATGGACCGGTTTTCCCGGTAATCCGTATTTGGA (site ACTGCATCTTC)”: the “recombinant UMI read abundance (log10)” value is 1.22.

With “ACTGGAACATGGACCGGTTTTCCCGGTAATCCGTATTTGAG (site ACTAGAACTCT)”, the “recombinant UMI read abundance (log10)” value is 1.69. With “ACTGGAACATGGACCGGTTTTCCCGGTAATCCGTATTTGAG (site ACTCGAACTCT)”, the “recombinant UMI read abundance (log10)” value came to 0.239. Turning to “ACTGGAACATGGACCGGTTTTCCCGGTAATCCGTATTTGAG (site ACTGGAACTCT)”, the “recombinant UMI read abundance (log10)” value is 2.11.

For “ACTGGAACATGGACCGGTTTTCCCGGTAATCCGTATTTGAG (site ACTTGAACTCT)”, the “recombinant UMI read abundance (log10)” value was 0.0249.
